Measurements: patent publication US20260317320A1, “C5AR1 ANTAGONISTS AND USES THEREOF” (Vanqua Bio, Inc., priority 2022, published 2026)
Read-outs that look alike come from different tables or passages of the source.

What was measured:
[1] = biological target: T1, complement C5a receptor 1 (C5aR1) (Homo sapiens, UniProt P21730); test: β-arrestin recruitment via C5aR1 activation in live CHO-K1 cells (PathHunter), antagonist mode; assay type: cell-based
T1 construct: β-galactosidase fragment (PathHunter enzyme complementation); host or cells: CHO-K1 (PathHunter CHO-K1 C5aR1 β-arrestin cell line)
T1 sequence (P21730 1-350): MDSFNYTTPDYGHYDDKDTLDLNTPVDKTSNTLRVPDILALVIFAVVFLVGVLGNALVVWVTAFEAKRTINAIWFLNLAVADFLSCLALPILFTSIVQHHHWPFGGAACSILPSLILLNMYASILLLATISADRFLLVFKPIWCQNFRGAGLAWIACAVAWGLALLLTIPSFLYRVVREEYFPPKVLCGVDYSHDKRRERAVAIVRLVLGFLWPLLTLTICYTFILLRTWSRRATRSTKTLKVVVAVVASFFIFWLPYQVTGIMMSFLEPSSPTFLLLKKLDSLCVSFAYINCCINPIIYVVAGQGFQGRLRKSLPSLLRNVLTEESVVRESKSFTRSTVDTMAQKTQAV
Summary of the method: (§1)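 Live CHO-K1 cells carry two galactosidase enzyme fragments, one fused to β-arrestin and one to C5aR1, so that β-arrestin recruitment restores enzyme activity. Agonist mode tests compounds alone. Antagonist mode tests them against recombinant hC5a at EC90, and IC50 values are reported in binned ranges.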

[2] = biological target: T1, complement C5a receptor 1 (C5aR1); test: β-arrestin recruitment via C5aR1 activation in live CHO-K1 cells (PathHunter), agonist mode; assay type: cell-based
Summary of the method: as §1

[3] = antagonist mode, recombinant hC5a (EC90) as competing natural agonist, live CHO-K1 cells, read-out: [Antagonist] B-arrestin2 recruitment: Average IC50

Row | Structure (SMILES) | IC50 [1, 3] [µM] | [Agonist] B-arrestin2 recruitment: Average EC50 (nM) [2] | IC50 [1] [µM]
1 | Cc1cccc(F)c1N1CCC(c2cc3nccnc3n(Cc3ccc(C(F)(F)F)cn3)c2=O)CC1 [compound 15, 7-(1-(2-Fluoro-6-methylphenyl)piperidin-4-yl)-5-((5-(trifluoromethyl)pyridin-2-yl)methyl)pyrido[2,3-b]pyrazin-6(5H)-one] | > 100 | Non-Active | –
2 | Cc1cccc(F)c1N1CCC(c2cc3nccnc3n(Cc3ccncc3C(F)(F)F)c2=O)CC1 [compound 17, 7-(1-(2-Fluoro-6-methylphenyl)piperidin-4-yl)-5-((3-(trifluoromethyl)pyridin-4-yl)methyl) pyrido[2,3-b]pyrazin-6(5H)-one] | 0.5 to 5 | Non-Active | –
3 | Cc1cccc(F)c1N1CCC(c2cc3nccnc3n(Cc3nccnc3C)c2=O)CC1 [compound 20, 7-(1-(2-Fluoro-6-methylphenyl)piperidin-4-yl)-5-((3-methylpyrazin-2-yl)methyl)pyrido[2,3-b]pyrazin-6(5H)-one] | 0.5 to 5 | Non-Active | –
4 | Cc1cccc(F)c1N1CCC(c2cc3nccnc3n(Cc3nccnc3C(F)(F)F)c2=O)C1 (centres unmarked) [compound 23, 7-(1-(2-Fluoro-6-methylphenyl)pyrrolidin-3-yl)-5-((3-(trifluoromethyl)pyrazin-2-yl)methyl) pyrido[2,3-b]pyrazin-6(5H)-one] | 0.5 to 5 | Non-Active | –
5 | Cc1cccc(F)c1N1CCN(c2cc3nccnc3n(Cc3nccnc3C(F)(F)F)c2=O)CC1 [compound 24, 7-(4-(2-Fluoro-6-methylphenyl)piperazin-1-yl)-5-((3-(trifluoromethyl)pyrazin-2-yl)methyl)pyrido[2,3-b]pyrazin-6(5H)-one] | 0.5 to 5 | Non-Active | –
6 | Cc1cnc2cc(C3CCN(c4c(C)cccc4F)CC3)c(=O)n(Cc3nccnc3C(F)(F)F)c2n1 [compound 25, 7-(1-(2-Fluoro-6-methylphenyl)piperidin-4-yl)-3-methyl-5-((3-(trifluoromethyl)pyrazin-2-yl)methyl)pyrido[2,3-b]pyrazin-6(5H)-one] | < 0.5 | Non-Active | –
7 | Cc1c(N2CCC(c3cc4nccnc4n(Cc4ccccc4C(F)(F)F)c3=O)CC2)ccnc1F [compound 29, 7-(1-(2-Fluoro-3-methylpyridin-4-yl)piperidin-4-yl)-5-(2-(trifluoromethyl)benzyl)pyrido-[2,3-b]pyrazin-6(5H)-one] | 5 to 100 | Non-Active | –
8 | Cc1cc(F)ncc1N1CCC(c2cc3nccnc3n(Cc3ccccc3C(F)(F)F)c2=O)CC1 [compound 32, 7-(1-(6-Fluoro-4-methylpyridin-3-yl)piperidin-4-yl)-5-(2-(trifluoromethyl)benzyl)pyrido-[2,3-b]pyrazin-6(5H)-one] | < 0.5 | Non-Active | –
9 | COc1ccnc(F)c1N1CCC(c2cc3nccnc3n(Cc3ccccc3C(F)(F)F)c2=O)CC1 [compound 33, 7-(1-(2-Fluoro-4-methoxypyridin-3-yl)piperidin-4-yl)-5-(2-(trifluoromethyl)benzyl)pyrido[2,3-b]pyrazin-6(5H)-one] | 0.5 to 5 | Non-Active | –
10 | O=c1c(C2CCN(c3nccnc3F)CC2)cc2nccnc2n1Cc1ccccc1C(F)(F)F [compound 34, 7-(1-(3-Fluoropyrazin-2-yl)piperidin-4-yl)-5-(2-(trifluoromethyl)benzyl)pyrido[2,3-b]pyrazine-6(5H)-one] | > 100 | Non-Active | –
11 | Cc1cccc(F)c1N1CCC(n2c(=O)c3ccccc3n(Cc3ncccc3C(F)(F)F)c2=O)CC1 [compound 36, 3-(1-(2-Fluoro-6-methylphenyl)piperidin-4-yl)-1-((3-(trifluoromethyl)pyridin-2-yl)methyl)quinazoline-2,4(1H,3H)-dione] | 0.5 to 5 | Non-Active | –
12 | Cc1cccc(F)c1N1CCC(n2c(=O)c3nccnc3n(Cc3nccnc3C(F)(F)F)c2=O)CC1 [compound 37, 3-(1-(2-Fluoro-6-methylphenyl)piperidin-4-yl)-1-((3-(trifluoromethyl)pyrazin-2-yl)methyl)pteridine-2,4(1H,3H)-dione] | 5 to 100 | Non-Active | –
13 | O=c1c(C2CCN(c3ccccc3C(F)(F)F)CC2)cc2nccnc2n1Cc1ncccc1C(F)(F)F [compound 38, 7-(1-(2-(Trifluoromethyl)phenyl)piperidin-4-yl)-5-((3-(trifluoromethyl)pyridin-2-yl)methyl)pyrido[2,3-b]pyrazin-6(5H)-one] | < 0.5 | Non-Active | –
14 | Cc1cccc(F)c1N1CCC(c2nc3nccnc3n(Cc3ccccc3C(F)(F)F)c2=O)CC1 [compound 39, 3-(1-(2-Fluoro-6-methylphenyl)piperidin-4-yl)-1-(2-(trifluoromethyl)benzyl)pyrazino[2,3-b]pyrazin-2(1H)-one] | – | Non-Active | 0.5 to 5

Other lines, results leading:

Row | IC50 [1, 3] [µM] | [Agonist] B-arrestin2 recruitment: Average EC50 (nM) [2] | IC50 [1] [µM] | Structure (SMILES)
15 | < 0.5 | Non-Active | – | Cc1cccc(F)c1N1CCC(c2cc3nccnc3n(Cc3cnccc3C(F)(F)F)c2=O)CC1 [compound 16, 7-(1-(2-Fluoro-6-methylphenyl)piperidin-4-yl)-5-((4-(trifluoromethyl)pyridin-3-yl)methyl) pyrido[2,3-b]pyrazin-6(5H)-one]
16 | > 100 | Non-Active | – | O=c1c(C2CCN(c3cccnc3C(F)(F)F)CC2)cc2nccnc2n1Cc1ccccc1F [compound 18, 5-(2-Fluorobenzyl)-7-(1-(2-(trifluoromethyl)pyridin-3-yl)piperidin-4-yl)pyrido[2,3-b]pyrazin-6(5H)-one]
17 | < 0.5 | Non-Active | – | Cc1cccc(F)c1N1CCC(c2cc3nccnc3n(Cc3ncccc3C(F)(F)F)c2=O)CC1 [compound 21, 7-(1-(2-Fluoro-6-methylphenyl)piperidin-4-yl)-5-((3-(trifluoromethyl)pyridin-2-yl)methyl)pyrido[2,3-b]pyrazin-6(5H)-one]
18 | 0.5 to 5 | Non-Active | – | Cc1cccc(F)c1N1CCC(c2c(C)c3nccnc3n(Cc3nccnc3C(F)(F)F)c2=O)CC1 [compound 22, 7-(1-(2-Fluoro-6-methylphenyl)piperidin-4-yl)-8-methyl-5-((3-(trifluoromethyl)pyrazin-2-yl)methyl)pyrido[2,3-b]pyrazin-6(5H)-one]
19 | 0.5 to 5 | Non-Active | – | Cc1cnc(F)cc1N1CCC(c2cc3nccnc3n(Cc3ccccc3C(F)(F)F)c2=O)CC1 [compound 26, 7-(1-(2-fluoro-5-methylpyridin-4-yl)piperidin-4-yl)-5-(2-(trifluoromethyl)benzyl)pyrido-[2,3-b]pyrazin-6(5H)-one]
20 | – | Non-Active | > 100 | Cc1cccc(F)c1N1CCC(c2cc3nccnc3n(Cc3cnc(C(F)(F)F)cn3)c2=O)CC1 [compound 27, 7-(1-(2-Fluoro-6-methylphenyl)piperidin-4-yl)-5-((5-(trifluoromethyl)pyrazin-2-yl)methyl)pyrido[2,3-b]pyrazin-6(5H)-one]
21 | 5 to 100 | Non-Active | – | Cc1cccc(F)c1N1CCC(c2cc3cncnc3n(Cc3nccnc3C(F)(F)F)c2=O)CC1 [compound 28, 6-(1-(2-fluoro-6-methylphenyl)piperidin-4-yl)-8-((3-(trifluoromethyl)pyrazin-2-yl)methyl)pyrido[2,3-d]pyrimidin-7(8H)-one]
22 | – | Non-Active | 5 to 100 | Cc1cccc(F)c1N1CCC(c2cc3nccnc3n(Cc3cncc(C(F)(F)F)n3)c2=O)CC1 [compound 30, 7-(1-(2-Fluoro-6-methylphenyl)piperidin-4-yl)-5-((6-(trifluoromethyl)pyrazin-2-yl)methyl)pyrido[2,3-b]pyrazin-6(5H)-one]
23 | < 0.5 | Non-Active | – | Cc1ccnc(F)c1N1CCC(c2cc3nccnc3n(Cc3ccccc3C(F)(F)F)c2=O)CC1 [compound 31, 7-(1-(2-Fluoro-4-methylpyridin-3-yl)piperidin-4-yl)-5-(2-(trifluoromethyl)benzyl)pyrido[2,3-b]pyrazin-6(5H)-one]
24 | < 0.5 | Non-Active | – | Cc1cccc(F)c1N1CCC(c2cc3nccnc3n(Cc3ccccc3F)c2=O)CC1 [compound 35, 7-(1-(2-Fluoro-6-methylphenyl)piperidin-4-yl)-5-(2-fluorobenzyl)pyrido[2,3-b]pyrazin-6(5H)-one]
25 | < 0.5 | Non-Active | – | Cc1cnc2cc(C3CCN(c4c(C)cccc4F)CC3)c(=O)n(Cc3ncccc3C(F)(F)F)c2n1 [compound 41, 7-(1-(2-Fluoro-6-methylphenyl)piperidin-4-yl)-3-methyl-5-((3-(trifluoromethyl)pyridin-2-yl)methyl)pyrido[2,3-b]pyrazin-6(5H)-one]
